From PubChem BioAssay (NCI)
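Results reflect a 48-hour exposure of cells in 96-well plates to compound at five concentrations. GI50 = concentration required for 50% inhibition of growth. The concentration for full growth arrest is given as TGI.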

Assays:
Experiment in all cases: NCI-60 cell line screen, 48 h
LOX IMVI melanoma = test system: LOX IMVI melanoma
U251 CNS = test system: U251 CNS
KM12 colon = test system: KM12 colon
SK-MEL-28 melanoma = test system: SK-MEL-28 melanoma
DU-145 prostate = test system: DU-145 prostate
OVCAR-8 ovarian = test system: OVCAR-8 ovarian
SNB-19 CNS = test system: SNB-19 CNS
SN12C renal = test system: SN12C renal
NCI/ADR-RES ovarian = test system: NCI/ADR-RES ovarian
NCI-H226 lung = test system: NCI-H226 lung
OVCAR-3 ovarian = test system: OVCAR-3 ovarian
OVCAR-4 ovarian = test system: OVCAR-4 ovarian
SW-620 colon = test system: SW-620 colon
M14 melanoma = test system: M14 melanoma
HCT-116 colon = test system: HCT-116 colon
BT-549 breast = test system: BT-549 breast
IGROV1 ovarian = test system: IGROV1 ovarian
SF-295 CNS = test system: SF-295 CNS
HT29 colon = test system: HT29 colon
PC-3 prostate = test system: PC-3 prostate
SK-MEL-5 melanoma = test system: SK-MEL-5 melanoma
RPMI-8226 leukemia = test system: RPMI-8226 leukemia
HOP-62 NSCLC = test system: HOP-62 NSCLC
ACHN renal = test system: ACHN renal
OVCAR-5 ovarian = test system: OVCAR-5 ovarian
K-562 leukemia = test system: K-562 leukemia
NCI-H522 lung = test system: NCI-H522 lung
786-0 renal = test system: 786-0 renal
HL-60(TB) leukemia = test system: HL-60(TB) leukemia
SK-OV-3 ovarian = test system: SK-OV-3 ovarian
CCRF-CEM leukemia = test system: CCRF-CEM leukemia
CAKI-1 renal = test system: CAKI-1 renal
COLO 205 colon = test system: COLO 205 colon
EKVX NSCLC = test system: EKVX NSCLC
A498 renal = test system: A498 renal
RXF 393 renal = test system: RXF 393 renal
SNB-75 CNS = test system: SNB-75 CNS
TK-10 renal = test system: TK-10 renal
NCI-H23 lung = test system: NCI-H23 lung
MOLT-4 leukemia = test system: MOLT-4 leukemia
A549 NSCLC = test system: A549 NSCLC
HCT-15 colon = test system: HCT-15 colon
UACC-62 melanoma = test system: UACC-62 melanoma
MDA-MB-231 breast = test system: MDA-MB-231 breast
MDA-MB-435 = test system: MDA-MB-435
UO-31 renal = test system: UO-31 renal
T-47D breast = test system: T-47D breast
MCF7 breast = test system: MCF7 breast
HCC-2998 colon = test system: HCC-2998 colon
UACC-257 melanoma = test system: UACC-257 melanoma
SF-268 CNS = test system: SF-268 CNS
HS 578T breast = test system: HS 578T breast
SF-539 CNS = test system: SF-539 CNS
MALME-3M melanoma = test system: MALME-3M melanoma
NCI-H460 lung = test system: NCI-H460 lung
SR leukemia = test system: SR leukemia

CCCCCCCCCC(CCCC(O)CC(=O)O)OC1OC(COC2OC(C)C(O)C(O)C2O)C(O)C(O)C1OC1OC(CO)C(O)C(O)C1OC1OC(C)C(OC(=O)CC(C)C)C(O)C1O (configuration not stated)
GI50 (LOX IMVI melanoma): > 60 µM | TGI (LOX IMVI melanoma): > 60 µM | GI50 (U251 CNS): > 60 µM | TGI (U251 CNS): > 60 µM | GI50 (KM12 colon): > 60 µM | TGI (KM12 colon): > 60 µM | GI50 (SK-MEL-28 melanoma): > 60 µM | TGI (SK-MEL-28 melanoma): > 60 µM | GI50 (DU-145 prostate): > 60 µM | TGI (DU-145 prostate): > 60 µM | GI50 (OVCAR-8 ovarian): > 60 µM | TGI (OVCAR-8 ovarian): > 60 µM | GI50 (SNB-19 CNS): > 60 µM | TGI (SNB-19 CNS): > 60 µM | GI50 (SN12C renal): > 60 µM | TGI (SN12C renal): > 60 µM | GI50 (NCI/ADR-RES ovarian): > 60 µM | TGI (NCI/ADR-RES ovarian): > 60 µM | GI50 (NCI-H226 lung): > 60 µM | TGI (NCI-H226 lung): > 60 µM | GI50 (OVCAR-3 ovarian): > 60 µM | TGI (OVCAR-3 ovarian): > 60 µM | GI50 (OVCAR-4 ovarian): > 60 µM | TGI (OVCAR-4 ovarian): > 60 µM | GI50 (SW-620 colon): > 60 µM | TGI (SW-620 colon): > 60 µM | GI50 (M14 melanoma): > 60 µM | TGI (M14 melanoma): > 60 µM | GI50 (HCT-116 colon): > 60 µM | TGI (HCT-116 colon): > 60 µM | GI50 (BT-549 breast): > 60 µM | TGI (BT-549 breast): > 60 µM | GI50 (IGROV1 ovarian): > 60 µM | TGI (IGROV1 ovarian): > 60 µM | GI50 (SF-295 CNS): > 60 µM | TGI (SF-295 CNS): > 60 µM | GI50 (HT29 colon): > 60 µM | TGI (HT29 colon): > 60 µM | GI50 (PC-3 prostate): > 60 µM | TGI (PC-3 prostate): > 60 µM | GI50 (SK-MEL-5 melanoma): > 60 µM | TGI (SK-MEL-5 melanoma): > 60 µM | GI50 (RPMI-8226 leukemia): > 60 µM | TGI (RPMI-8226 leukemia): > 60 µM | GI50 (HOP-62 NSCLC): > 60 µM | TGI (HOP-62 NSCLC): > 60 µM | GI50 (ACHN renal): > 60 µM | TGI (ACHN renal): > 60 µM | GI50 (OVCAR-5 ovarian): > 60 µM | TGI (OVCAR-5 ovarian): > 60 µM | GI50 (K-562 leukemia): > 60 µM | TGI (K-562 leukemia): > 60 µM | GI50 (NCI-H522 lung): > 60 µM | TGI (NCI-H522 lung): > 60 µM | GI50 (786-0 renal): > 60 µM | TGI (786-0 renal): > 60 µM | GI50 (HL-60(TB) leukemia): > 60 µM | TGI (HL-60(TB) leukemia): > 60 µM | GI50 (SK-OV-3 ovarian): > 60 µM | TGI (SK-OV-3 ovarian): > 60 µM | GI50 (CCRF-CEM leukemia): > 60 µM | TGI (CCRF-CEM leukemia): > 60 µM | GI50 (CAKI-1 renal): > 60 µM | TGI (CAKI-1 renal): > 60 µM | GI50 (COLO 205 colon): > 60 µM | TGI (COLO 205 colon): > 60 µM | GI50 (EKVX NSCLC): > 60 µM | TGI (EKVX NSCLC): > 60 µM | GI50 (A498 renal): 0.459 µM | TGI (A498 renal): 34.5 µM | GI50 (RXF 393 renal): > 60 µM | TGI (RXF 393 renal): > 60 µM | GI50 (SNB-75 CNS): > 60 µM | TGI (SNB-75 CNS): > 60 µM | GI50 (TK-10 renal): > 60 µM | TGI (TK-10 renal): > 60 µM | GI50 (NCI-H23 lung): > 60 µM | TGI (NCI-H23 lung): > 60 µM | GI50 (MOLT-4 leukemia): > 60 µM | TGI (MOLT-4 leukemia): > 60 µM | GI50 (A549 NSCLC): > 60 µM | TGI (A549 NSCLC): > 60 µM | GI50 (HCT-15 colon): > 60 µM | TGI (HCT-15 colon): > 60 µM | GI50 (UACC-62 melanoma): > 60 µM | TGI (UACC-62 melanoma): > 60 µM | GI50 (MDA-MB-231 breast): > 60 µM | TGI (MDA-MB-231 breast): > 60 µM | GI50 (MDA-MB-435): > 60 µM | TGI (MDA-MB-435): > 60 µM | GI50 (UO-31 renal): > 60 µM | TGI (UO-31 renal): > 60 µM | GI50 (T-47D breast): > 60 µM | TGI (T-47D breast): > 60 µM | GI50 (MCF7 breast): > 60 µM | TGI (MCF7 breast): > 60 µM | GI50 (HCC-2998 colon): > 60 µM | TGI (HCC-2998 colon): > 60 µM | GI50 (UACC-257 melanoma): > 60 µM | TGI (UACC-257 melanoma): > 60 µM | GI50 (SF-268 CNS): > 60 µM | TGI (SF-268 CNS): > 60 µM | GI50 (HS 578T breast): > 60 µM | TGI (HS 578T breast): > 60 µM | GI50 (SF-539 CNS): > 60 µM | TGI (SF-539 CNS): > 60 µM | GI50 (MALME-3M melanoma): > 60 µM | TGI (MALME-3M melanoma): > 60 µM | GI50 (NCI-H460 lung): > 60 µM | TGI (NCI-H460 lung): > 60 µM | GI50 (SR leukemia): > 60 µM | TGI (SR leukemia): > 60 µM
